For 49 molecules, IC50 results are on record in patent publication US7488832B2, “Azolylacylguanidines as β-secretase inhibitors” (Wyeth, priority 2005, dated 2009).

human BACE1, sequence (P56817 46-501): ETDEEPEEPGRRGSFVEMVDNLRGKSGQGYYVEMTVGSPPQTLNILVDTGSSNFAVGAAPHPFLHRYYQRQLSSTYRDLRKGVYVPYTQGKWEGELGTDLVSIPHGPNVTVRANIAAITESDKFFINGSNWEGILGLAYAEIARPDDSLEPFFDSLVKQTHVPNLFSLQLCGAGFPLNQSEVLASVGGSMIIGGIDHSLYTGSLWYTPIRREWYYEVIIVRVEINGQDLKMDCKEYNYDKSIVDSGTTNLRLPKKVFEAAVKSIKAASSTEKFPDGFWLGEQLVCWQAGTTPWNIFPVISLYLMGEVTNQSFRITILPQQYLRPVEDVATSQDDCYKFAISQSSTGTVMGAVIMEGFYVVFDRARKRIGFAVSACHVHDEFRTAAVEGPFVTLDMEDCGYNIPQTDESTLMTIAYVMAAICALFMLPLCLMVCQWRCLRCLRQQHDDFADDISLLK

The first assay addresses human BACE1 (Homo sapiens, UniProt P56817). In words: Fluorescent kinetic assay, human BACE1 (FRET peptide substrate WABC-6).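 Also: fluorescence monitored at excitation 320 nm and emission 420 nm over 30 min, with the substrate cleavage rate taken as the linear slope of the signal.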 The assay is classed as biochemical.
Conditions: not given
Usually IC50 stands for the midpoint of a concentration-inhibition curve. With `N/C(=N/C(=O)Cn1c(-c2ccccc2)ccc1C12CC3CC(CC(C3)C1)C2)NCCCO` [Example 395], the half-inhibitory concentration (IC50) was 0.11 to 1 µM.

The same assay, now with this note: fluorescent kinetic assay, 25 μM substrate WABC-6, pH 4.5, room temperature; read-out: IC50 (μM) BACE 1.
Take 4-n-propyl-piperidine [Example 185]: the half-maximal inhibitory concentration (IC50) lay within 1.1 to 5 µM.

Regarding `Cc1ccc(-c2ccc(-c3ccc(Cl)s3)n2CC(=O)N=C(N)N)cc1` [Example 110], the IC50 lay within 1.1 to 5 µM.

`COc1ccc(OC)c(-c2ccc(-c3ccc(Oc4ccccc4)cc3)n2CC(=O)N=C(N)N)c1` [Example 133]: the IC50 lay within 1.1 to 5 µM.

With `COc1ccc(OC)c(-c2ccc(-c3ccc(Oc4ccc(C(C)=O)cc4)cc3)n2CC(=O)N=C(N)N)c1` [Example 135], the IC50 was in the range of 0.11 to 1 µM.

In the case of `COc1cccc(-c2ccc(-c3ccc4ccccc4c3)n2CC(=O)N=C(N)N)c1` [Example 147], the IC50 was 1.1 to 5 µM.

For the molecule `NC(N)=NC(=O)Cn1c(-c2ccccc2)ccc1-c1ccc(C(=O)N2CCSC2)cc1` [Example 169], the IC50 lay in the range of 1.1 to 5 µM.

Turning to `CC1CCN(C(=O)c2ccc(-c3ccc(-c4ccccc4)n3CC(=O)N=C(N)N)cc2)CC1` [Example 170], the IC50 is 1.1 to 5 µM.

Consider `Cc1cccc(C(=O)Nc2ccc(-c3ccc(-c4ccccc4)n3CC(=O)N=C(N)N)cc2)c1` [Example 236], for which the IC50 lay within 1.1 to 5 µM.

Take `NC(N)=NC(=O)Cn1c(-c2ccccc2)ccc1-c1ccc(NC(=O)COc2ccccc2)cc1` [Example 242]: the IC50 was 1.1 to 5 µM.

`NC(N)=NC(=O)Cn1c(-c2ccccc2)ccc1-c1ccc(NS(=O)(=O)c2ccc(Cl)s2)cc1` [Example 258]: the IC50 was 1.1 to 5 µM.

For `C=CCCOc1ccc(-c2ccc(-c3ccccc3)n2CC(=O)N=C(N)N)cc1` [Example 273], the IC50 was 1.1 to 5 µM.

As for `CC[C@H](C)COc1ccc(-c2ccc(-c3ccccc3)n2CC(=O)N=C(N)N)cc1` [Example 283], the IC50 was in the range of 1.1 to 5 µM.

Take `NC(=NC(=O)Cn1c(-c2ccc(Oc3ccccc3)cc2)ccc1-c1ccccc1Cl)NCCCO` [Example 310]: the IC50 was 0.11 to 1 µM.

Regarding `C=CCCCOc1ccc(-c2ccc(-c3ccccc3Cl)n2CC(=O)NC(=N)NCCCO)cc1` [Example 313], the IC50 fell in the range of 0.11 to 1 µM.

Consider `N#CCCCCOc1ccc(-c2ccc(-c3ccccc3Cl)n2CC(=O)N=C(N)NCCCO)cc1` [Example 314], for which the IC50 was 0.01 to 0.1 µM.

As to `C=CCCCCOc1ccc(-c2ccc(-c3ccccc3Cl)n2CC(=O)N=C(N)NCCCO)cc1` [Example 315], the half-inhibitory concentration (IC50) lay within 0.11 to 1 µM.

For the molecule `N/C(=N/C(=O)Cn1c(-c2ccc(OCCC3OCCO3)cc2)ccc1-c1ccccc1Cl)NCCCO` [Example 316], the IC50 is 0.11 to 1 µM.

On to `CCCCCOc1ccc(-c2ccc(-c3ccccc3Cl)n2CC(=O)/N=C(/N)NCCCO)cc1` [Example 317], for which the IC50 fell in the range of 0.11 to 1 µM.

For the molecule `N#Cc1ccc(-c2ccc(-c3ccccc3)n2CC(=O)N=C(N)NCCCO)cc1` [Example 318], the IC50 fell in the range of 1.1 to 5 µM.

Take `CC(C)c1ccc(-c2ccc(-c3ccccc3)n2CC(=O)N=C(N)NCCCO)cc1` [Example 319]: the IC50 is 0.11 to 1 µM.

With `CCCc1ccc(-c2ccc(-c3ccccc3)n2CC(=O)N=C(N)NCCCO)cc1` [Example 320], the IC50 was 0.11 to 1 µM.

As for `CCCCc1ccc(-c2ccc(-c3ccccc3)n2CC(=O)N=C(N)NCCCO)cc1` [Example 321], the IC50 fell in the range of 0.11 to 1 µM.

Consider `CC(C)Cc1ccc(-c2ccc(-c3ccccc3)n2CC(=O)N=C(N)NCCCO)cc1` [Example 322], for which the IC50 lay within 0.11 to 1 µM.

Turning to `CCCCCc1ccc(-c2ccc(-c3ccccc3)n2CC(=O)N=C(N)NCCCO)cc1` [Example 323], the IC50 fell in the range of 0.11 to 1 µM.

Consider `CCCCOc1ccc(-c2ccc(-c3ccccc3)n2CC(=O)N=C(N)NCCCO)cc1` [Example 324], for which the half-inhibitory concentration (IC50) fell in the range of 0.11 to 1 µM.

Turning to `NC(=NC(=O)Cn1c(-c2ccccc2)ccc1-c1ccc(-c2ccccc2)cc1)NCCCO` [Example 325], the IC50 fell in the range of 0.11 to 1 µM.

Consider `NC(=NC(=O)Cn1c(-c2ccccc2)ccc1-c1ccc(C2CCCCC2)cc1)NCCCO` [Example 327], for which the IC50 is 0.11 to 1 µM.

As for `NC(=NC(=O)Cn1c(-c2ccccc2)ccc1-c1ccc(Oc2ccccc2)cc1)NCCCO` [Example 328], the IC50 was 0.11 to 1 µM.

On to `CC(=O)c1ccc(Oc2ccc(-c3ccc(-c4ccccc4)n3CC(=O)N=C(N)NCCCO)cc2)cc1` [Example 329], for which the IC50 fell in the range of 0.11 to 1 µM.

Consider `N#Cc1ccc(-c2ccc(-c3ccccc3)n2CC(=O)N=C(N)NCc2ccc(F)c(F)c2F)cc1` [Example 330], for which the IC50 is 1.1 to 5 µM.

As for `CC(C)c1ccc(-c2ccc(-c3ccccc3)n2CC(=O)N=C(N)NCc2ccc(F)c(F)c2F)cc1` [Example 331], the half-inhibitory concentration (IC50) is 1.1 to 5 µM.

Regarding `CCCc1ccc(-c2ccc(-c3ccccc3)n2CC(=O)N=C(N)NCc2ccc(F)c(F)c2F)cc1` [Example 332], the IC50 was in the range of 0.11 to 1 µM.

With `CCCCc1ccc(-c2ccc(-c3ccccc3)n2CC(=O)N=C(N)NCc2ccc(F)c(F)c2F)cc1` [Example 333], the IC50 lay within 0.11 to 1 µM.

For the molecule `CCCCOc1ccc(-c2ccc(-c3ccccc3)n2CC(=O)N=C(N)NCc2ccc(F)c(F)c2F)cc1` [Example 334], the IC50 is 0.11 to 1 µM.

With `NC(=NC(=O)Cn1c(-c2ccccc2)ccc1-c1ccc(C2CCCCC2)cc1)NCc1ccc(F)c(F)c1F` [Example 336], the IC50 lay in the range of 0.11 to 1 µM.

For the molecule `NC(=NC(=O)Cn1c(-c2ccccc2)ccc1-c1ccc(Oc2ccccc2)cc1)NCc1ccc(F)c(F)c1F` [Example 337], the IC50 fell in the range of 0.11 to 1 µM.

As for `CC(=O)c1ccc(Oc2ccc(-c3ccc(-c4ccccc4)n3CC(=O)N=C(N)NCc3ccc(F)c(F)c3F)cc2)cc1` [Example 338], the IC50 fell in the range of 1.1 to 5 µM.

As for `CCN/C(N)=N\C(=O)Cn1c(-c2ccccc2)ccc1C12CC3CC(CC(C3)C1)C2` [Example 390], the IC50 lay in the range of 0.11 to 1 µM.

`CCCN/C(N)=N\C(=O)Cn1c(-c2ccccc2)ccc1C12CC3CC(CC(C3)C1)C2` [Example 391]: the IC50 fell in the range of 0.11 to 1 µM.

Take `CCCCCN/C(N)=N\C(=O)Cn1c(-c2ccccc2)ccc1C12CC3CC(CC(C3)C1)C2` [Example 392]: the IC50 lay within 1.1 to 5 µM.

For `N#CCCCNC(=N)NC(=O)Cn1c(-c2ccccc2)ccc1C12CC3CC(CC(C3)C1)C2` [Example 393], the half-inhibitory concentration (IC50) is 0.11 to 1 µM.

Take `CC(=O)OCCNC(N)=NC(=O)Cn1c(-c2ccccc2)ccc1C12CC3CC(CC(C3)C1)C2` [Example 394]: the IC50 lay within 0.11 to 1 µM.

As to `N/C(=N/C(=O)Cn1c(-c2ccccc2)ccc1C12CC3CC(CC(C3)C1)C2)NCCO` [Example 396, 2-[2-(1-adamantyl)-5-phenyl-1H-pyrrol-1-yl]-N-{(1E)-amino[(2-hydroxyethyl)-amino]methylene}acetamide], the IC50 fell in the range of 0.11 to 1 µM.

With `N#CCCN/C(N)=N\C(=O)Cn1c(-c2ccccc2)ccc1C12CC3CC(CC(C3)C1)C2` [Example 397], the IC50 was in the range of 0.11 to 1 µM.

Consider `N/C(=N\C(=O)Cn1c(-c2ccccc2)ccc1C12CC3CC(CC(C3)C1)C2)NCCCCO` [Example 400, 2-[2-(1-Adamantyl)-5-phenyl-1H-pyrrol-1-yl]-N-{(1E)-amino[(4-hydroxybutyl)amino]-methylene}acetamide], for which the IC50 lay within 0.11 to 1 µM.

Regarding `NC(=NC(=O)Cn1c(-c2ccccc2)ccc1C12CC3CC(CC(C3)C1)C2)NCc1ccco1` [Example 401], the IC50 was 1.1 to 5 µM.

Turning to `NC(=NC(=O)Cn1c(-c2ccccc2)ccc1C12CC3CC(CC(C3)C1)C2)NCC1CCCO1` (stereo not shown) [Example 402], the IC50 fell in the range of 0.11 to 1 µM.

With `CC(O)CNC(N)=NC(=O)Cn1c(-c2ccccc2)ccc1C12CC3CC(CC(C3)C1)C2` (stereo not shown) [Example 404], the IC50 was 0.11 to 1 µM.
